pIC50: −log10 of the molar value.

The target of this test is T1, Cathepsin B-like cysteine protease (Trypanosoma brucei, UniProt Q6R7Z5).
T1 sequence (Q6R7Z5 whole entry): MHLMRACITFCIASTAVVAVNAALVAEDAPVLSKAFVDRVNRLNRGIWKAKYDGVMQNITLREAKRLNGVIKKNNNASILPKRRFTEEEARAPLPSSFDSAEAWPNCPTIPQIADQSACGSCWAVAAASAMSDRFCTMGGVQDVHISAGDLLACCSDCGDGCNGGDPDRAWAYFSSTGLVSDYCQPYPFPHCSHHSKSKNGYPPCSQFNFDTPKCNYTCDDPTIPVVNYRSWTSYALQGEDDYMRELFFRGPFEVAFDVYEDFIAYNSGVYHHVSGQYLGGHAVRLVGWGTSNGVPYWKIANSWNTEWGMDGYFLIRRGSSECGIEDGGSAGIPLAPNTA
Nature of the test: Inhibition of Trypanosoma brucei CatB.
In the case of `Cn1c2c3ccc(Cl)cc3nc-2c(NC2CCNCC2)c2ccc(Cl)cc21`, the pIC50 was 4.37.

`Cn1c2c3ccccc3nc-2c(NC2CCNCC2)c2ccc(Cl)cc21` gave a pIC50 of 4.23.

As for `Cn1c2c3ccccc3nc-2c(Nc2cccnc2)c2ccccc21`, the pIC50 is 4.23.

`CCN(CC)Cc1ccc(Nc2c3nc4ccccc4c-3n(C)c3ccccc23)cc1O` had a pIC50 of 4.23.

As to `Cn1c2c3ccccc3nc-2c(NC2CCN(Cc3ccccc3O)CC2)c2ccccc21`, the negative logarithm of the IC50 (pIC50) was 4.59.

Compound `CC(C)CN1CCC(Nc2c3nc4ccccc4c-3n(C)c3ccccc23)CC1` gave a pIC50 of 4.59.

Regarding `CCN(CC)CCCC(C)Nc1c2nc3ccccc3c-2n(C)c2ccccc12` (stereo not given), the pIC50 was < 4.00.

Regarding `CC(C)NCCCNc1c2nc3ccccc3c-2n(C)c2ccccc12`, the pIC50 was 4.21.

Regarding `CN(C)CC(C)(C)CNc1c2nc3ccccc3c-2n(C)c2ccccc12`, the pIC50 was 4.21.

Regarding `CC(CN(C)C)Nc1c2nc3ccccc3c-2n(C)c2ccccc12` (stereo not given), the pIC50 was < 4.00.

The values above are taken from BindingDB's records for doi:10.1016/j.bmcl.2012.07.104 (University of Lisbon, 2012).
